This is an account of results in US10954239B2, “Imidazoquinoline amine derivatives, pharmaceutical compositions and therapeutic methods thereof” (CanWell Biotech Limited, priority 2019, dated 2021).

In the experiment the test system is human PBMC. The experiment in a line: TLR7/8 agonists induce cytokine release in human PBMC (ELISA of culture supernatant, 24 h). The format is cell-based. Conditions: minimum effective concentration: lowest concentration inducing cytokine at least 2x negative control, tested 0.0152-100 μM. The method, then:
Example 13. TLR7/8 agonists induce IFN-gamma and TNF-alpha release in human PBMC
The system is used to assess the cytokines release. Activity is based on the measurement of interferon-gamma (IFN-γ) and tumor necrosis factor-alpha (TNF-α) secreted into culture media.
Fresh human blood was diluted with the same volume of PBS, 15 mL Lymphoprep was added into a Sepmate tube, then 30 mL diluted blood was added on the top gently without disturbing the interface.
The Sepmate tube was centrifuged for 25 min at 1000×g at RT with brake off.
The buffy coat containing peripheral blood mononuclear cells (PBMCs) was collected from Sepmate tube and transferred into a new tube, and the cells were washed with 40 mL PBS twice and centrifuged at 350×g for 5 min.
PBMCs were resuspended in complete culture medium at a density of 2E6/mL.
The compounds are solubilized in dimethyl sulfoxide (DMSO) and diluted into indicated concentration with complete culture medium.
2*10^5 PBMCs (in 100 μL) were added to each well of 96-well flat bottom plate.
2× final concentration of 3-fold serial diluted compounds (in 100 μL) were added to indicated wells and final volume was 200 μL.
The plate was covered with sterile lids, mixed gently and then incubated for 24 h at 37° C./5% CO2 incubator.
Following incubation, the plates was centrifuged for 5 min. at 400×g. The cell-free culture Supernatant was removed into a non-sterile polypropylene plate. Samples are maintained at −80° C. until analysis. The samples were analyzed for TNF-α and IFN-γ by ELISA according to the direction.
TNF-α and IFN-α were analyzed by ELISA. IFN-α concentration was determined by ELISA using a Human IFN-α ELISA Kit from R&D Systems (Catalog #41100-2) and read on VICTOR Nivo™ from PerkinElmer. Results were expressed in pg/mL. TNF-α concentration was determined by ELISA using a Human TNF-alpha ELISA MAX™ Deluxe from BioLegend (Catalog #430205) and read on VICTOR Nivo™ from PerkinElmer. Results were expressed in pg/mL.
Specifically, the MEC of each compound (micromolar) was determined as the lowest concentration of the compound that induced a measured cytokine response at a level ([…]) that was at least 2× greater than that observed with the negative control wells.
On the technique in general: An ELISA detects its analyte on a solid surface through an enzyme-linked reagent.

Setting [1] is: read-out: MEC to induce cytokine: IFN-alpha.
Setting [2] is: read-out: MEC to induce cytokine: TNF-alpha.

Read-outs that look alike come from different tables or passages of the source. Where only a bound is given, the exact number is not on record here.

Take `CCCCCCCCCCCCCCCCCNC(=O)C(=O)NCCCCOn1c(CCCC)nc2c(N)nc3ccccc3c21` [Example 1, N1-(4-((4-amino-2-butyl-1H-imidazo[4,5-c]quinolin-1-yl)oxy)butyl)-N2-heptadecyloxalamide]: the minimal effective concentration is, setting by setting: under setting [1], greater than 33.3 µM; under setting [2], 11.1 µM.

Regarding `CCCCCCCCCCCCCCCCCNc1c(NCCCCOn2c(CCCC)nc3c(N)nc4ccccc4c32)c(=O)c1=O` [Example 2, 3-((4-((4-amino-2-butyl-1H-imidazo[4,5-c]quinolin-1-yl)oxy)butyl)amino)-4-(heptadecylamino)cyclobut-3-ene-1,2-dione], the minimal effective concentration worked out at 0.0152 µM under setting [1] and 0.0457 µM under setting [2].

Take `CCCCCCCCCCCCCCCCN1CCC(C(=O)NCCCCOn2c(CCCC)nc3c(N)nc4ccccc4c32)CC1` [Example 3, N-(4-((4-amino-2-butyl-1H-imidazo[4,5-c]quinolin-1-yl)oxy)butyl)-1-hexadecylpiperidine-4-carboxamide]: the minimal effective concentration runs as follows: under setting [1], 0.137 µM; under setting [2], 0.137 µM.

Take `CCCCCCCCCCCCCCCCCCN(CCCCOn1c(CCCC)nc2c(N)nc3ccccc3c21)CCCN(C)C` [Example 5, N1-(4-((4-amino-2-butyl-1H-imidazo[4,5-c]quinolin-1-yl)oxy)butyl)-N3,N3-dimethyl-N1-octadecylpropane-1,3-diamine]: the minimal effective concentration under setting [1] worked out at 1.23 µM and the minimal effective concentration under setting [2] was determined as 11.1 µM.

With `CCCCCCCCCCCCCCCCCNC(=O)C(=O)N(CCCCOn1c(CCCC)nc2c(N)nc3ccccc3c21)CCCN(C)C` [Example 6, N1-(4-((4-amino-2-butyl-1H-imidazo[4,5-c]quinolin-1-yl)oxy)butyl)-N1-(3-(dimethylamino)propyl)-N2-heptadecyloxalamide], the minimal effective concentration under setting [1] was greater than 100 µM and the minimal effective concentration under setting [2] is greater than 100 µM.

Turning to `CCCCCCCCCCCCCCCCCNc1c(N(CCCCOn2c(CCCC)nc3c(N)nc4ccccc4c32)CCCN(C)C)c(=O)c1=O` [Example 7, 3-((4-((4-amino-2-butyl-1H-imidazo[4,5-c]quinolin-1-yl)oxy)butyl)(3-(dimethylamino)propyl)amino)-4-(heptadecylamino)cyclobut-3-ene-1,2-dione], the minimal effective concentration is, setting by setting: under setting [1], 0.0152 µM; under setting [2], 0.41 µM.

In the case of `CCCCCCCCCCCCCCCCCc1nc(CCCCOn2c(CCCC)nc3c(N)nc4ccccc4c32)no1` [Example 10, 2-butyl-1-(4-(5-heptadecyl-1,2,4-oxadiazol-3-yl)butoxy)-1H-imidazo[4,5-c]quinolin-4-amine], the minimal effective concentration under setting [1] came out at 11.1 µM and the minimal effective concentration under setting [2] amounted to 3.7 µM.

`CCCCCCCCCCCCCCCCCc1noc(CCCCOn2c(CCCC)nc3c(N)nc4ccccc4c32)n1` [Example 11, 2-butyl-1-(4-(3-heptadecyl-1,2,4-oxadiazol-5-yl)butoxy)-1H-imidazo[4,5-c]quinolin-4-amine]: the minimal effective concentration is, setting by setting: under setting [1], 11.1 µM; under setting [2], 33.3 µM.

On to `CCCCCCCCCCCCCCCCCN(CCCN(C)C)c1c(NCCCCOn2c(CCCC)nc3c(N)nc4ccccc4c32)c(=O)c1=O` [Example 12, 3-(4-(4-amino-2-butyl-1H-imidazo[4,5-c]quinolin-1-yloxy)butylamino)-4-((3-(dimethylamino)propyl)(heptadecyl)amino)cyclobut-3-ene-1,2-dione], for which the minimal effective concentration is, setting by setting: under setting [1], 0.0152 µM; under setting [2], 0.41 µM.
